Measured values: ChEMBL document CHEMBL1201862, “PubChem BioAssay data set” (2004)
Active and inactive are the calls of the source.

What was measured:
[1] = molecular target: T1, Tyrosine-protein phosphatase non-receptor type 7 (Homo sapiens, UniProt P35236); format: functional
T1 sequence (P35236 whole entry): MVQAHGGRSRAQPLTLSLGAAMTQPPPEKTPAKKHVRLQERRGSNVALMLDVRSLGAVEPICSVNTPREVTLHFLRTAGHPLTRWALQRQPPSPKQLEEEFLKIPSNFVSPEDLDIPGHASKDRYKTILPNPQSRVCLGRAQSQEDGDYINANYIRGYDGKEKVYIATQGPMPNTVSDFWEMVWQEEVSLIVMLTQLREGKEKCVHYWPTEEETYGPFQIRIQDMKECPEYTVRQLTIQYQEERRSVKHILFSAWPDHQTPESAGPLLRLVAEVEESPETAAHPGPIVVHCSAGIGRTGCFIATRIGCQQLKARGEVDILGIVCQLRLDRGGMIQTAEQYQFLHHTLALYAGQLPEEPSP

Bcl-2-like protein 10 = molecular target: T2, Bcl-2-like protein 10 (Homo sapiens, UniProt Q9HD36); test: Bcl-B/TR3 peptide binding disruption – biochemical, fluorescence polarization, FITC-TR3 peptide, selectivity assay for Bfl-1 inhibitor project, primary screen (AID 748);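 further: fluorescence polarization from a fluorescein-labelled TR3 peptide binding purified Bcl-B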
T2 sequence (Q9HD36 whole entry): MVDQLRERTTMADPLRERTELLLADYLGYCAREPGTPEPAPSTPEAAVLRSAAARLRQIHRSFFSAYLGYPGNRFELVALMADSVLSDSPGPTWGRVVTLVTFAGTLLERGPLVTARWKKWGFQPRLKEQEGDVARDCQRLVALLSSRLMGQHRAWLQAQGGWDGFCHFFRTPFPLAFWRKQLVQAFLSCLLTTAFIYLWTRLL

[2] = molecular target: Glyceraldehyde-3-phosphate dehydrogenase (Homo sapiens, UniProt P04406)
Sequence of Glyceraldehyde-3-phosphate dehydrogenase (P04406 whole entry): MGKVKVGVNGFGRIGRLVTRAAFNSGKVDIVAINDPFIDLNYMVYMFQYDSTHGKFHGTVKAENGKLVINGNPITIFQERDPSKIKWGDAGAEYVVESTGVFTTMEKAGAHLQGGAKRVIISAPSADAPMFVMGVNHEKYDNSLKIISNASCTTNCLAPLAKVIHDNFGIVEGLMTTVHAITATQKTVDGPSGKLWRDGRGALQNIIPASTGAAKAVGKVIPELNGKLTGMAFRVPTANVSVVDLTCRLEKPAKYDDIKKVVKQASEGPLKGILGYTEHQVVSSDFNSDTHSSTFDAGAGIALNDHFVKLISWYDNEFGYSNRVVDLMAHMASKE

[3] = molecular target: Heat shock cognate 71 kDa protein (Homo sapiens, UniProt P11142); test: In Vitro Hsc70 Dose Response Fluorescence Polarization Assay. [Related pubchem assays: 1072 ]
Sequence of Heat shock cognate 71 kDa protein (P11142 whole entry): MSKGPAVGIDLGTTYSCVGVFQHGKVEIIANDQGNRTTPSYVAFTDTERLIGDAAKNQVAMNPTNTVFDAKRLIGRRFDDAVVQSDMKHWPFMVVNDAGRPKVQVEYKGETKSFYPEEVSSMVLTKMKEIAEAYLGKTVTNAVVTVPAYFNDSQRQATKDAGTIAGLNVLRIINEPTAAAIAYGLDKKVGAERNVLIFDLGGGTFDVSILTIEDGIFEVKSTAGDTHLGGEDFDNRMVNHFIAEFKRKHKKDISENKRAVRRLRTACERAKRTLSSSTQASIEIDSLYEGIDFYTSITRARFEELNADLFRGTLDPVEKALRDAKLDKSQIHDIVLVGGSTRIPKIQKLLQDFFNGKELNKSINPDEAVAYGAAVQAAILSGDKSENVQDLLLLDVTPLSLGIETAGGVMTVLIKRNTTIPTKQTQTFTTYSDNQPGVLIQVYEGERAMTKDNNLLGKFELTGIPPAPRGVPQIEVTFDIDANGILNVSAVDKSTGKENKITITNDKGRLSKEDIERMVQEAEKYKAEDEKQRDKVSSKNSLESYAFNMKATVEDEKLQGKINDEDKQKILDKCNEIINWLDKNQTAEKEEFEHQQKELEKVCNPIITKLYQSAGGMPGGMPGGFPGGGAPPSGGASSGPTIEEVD

Large T antigen = Large T antigen (Simian virus 40, UniProt P03070); format: functional, Betapolyomavirus macacae;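 further: Confirmatory-stage PubChem screen for compounds that inhibit SV40 T antigen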
[4] = molecular target: T3, E3 ubiquitin-protein ligase XIAP (Homo sapiens, UniProt P98170); test: Counter Screen using XIAP-Bir3 for Chemical Antagonists of Bir1/2 domains of IAP-family anti-apoptotic proteins. [Related pubchem assays (depositor defined):AID1018, AID1449, AID1514, AID1638, AID1749, AID1750, AID488957, AID488963]
T3 sequence (P98170 whole entry): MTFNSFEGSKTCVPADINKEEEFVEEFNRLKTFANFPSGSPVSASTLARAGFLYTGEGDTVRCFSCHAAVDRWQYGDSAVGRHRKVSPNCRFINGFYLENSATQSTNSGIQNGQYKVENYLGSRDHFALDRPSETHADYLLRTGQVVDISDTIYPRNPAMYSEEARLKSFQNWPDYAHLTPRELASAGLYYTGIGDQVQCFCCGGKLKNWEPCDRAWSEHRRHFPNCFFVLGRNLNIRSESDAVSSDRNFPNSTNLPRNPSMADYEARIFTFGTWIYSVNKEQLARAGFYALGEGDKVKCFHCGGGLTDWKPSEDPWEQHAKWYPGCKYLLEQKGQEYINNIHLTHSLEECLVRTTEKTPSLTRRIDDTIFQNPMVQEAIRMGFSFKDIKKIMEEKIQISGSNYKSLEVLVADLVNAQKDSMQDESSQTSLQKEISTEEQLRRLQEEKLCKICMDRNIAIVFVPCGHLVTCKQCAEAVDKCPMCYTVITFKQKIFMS

[5] = molecular target: T3, E3 ubiquitin-protein ligase XIAP; test: small molecules displacing peptide from XIAP – biochemical, IAP family, fluorescence polarization (AID 1018); format: functional
[6] = molecular target: Heat shock 70 kDa protein 1A (Homo sapiens, UniProt P0DMV8); test: inhibition of Hsp70 binding activity – biochemical, fluorescence polarization, SAR follow-up (AID 1072)
Sequence of Heat shock 70 kDa protein 1A (P0DMV8 whole entry): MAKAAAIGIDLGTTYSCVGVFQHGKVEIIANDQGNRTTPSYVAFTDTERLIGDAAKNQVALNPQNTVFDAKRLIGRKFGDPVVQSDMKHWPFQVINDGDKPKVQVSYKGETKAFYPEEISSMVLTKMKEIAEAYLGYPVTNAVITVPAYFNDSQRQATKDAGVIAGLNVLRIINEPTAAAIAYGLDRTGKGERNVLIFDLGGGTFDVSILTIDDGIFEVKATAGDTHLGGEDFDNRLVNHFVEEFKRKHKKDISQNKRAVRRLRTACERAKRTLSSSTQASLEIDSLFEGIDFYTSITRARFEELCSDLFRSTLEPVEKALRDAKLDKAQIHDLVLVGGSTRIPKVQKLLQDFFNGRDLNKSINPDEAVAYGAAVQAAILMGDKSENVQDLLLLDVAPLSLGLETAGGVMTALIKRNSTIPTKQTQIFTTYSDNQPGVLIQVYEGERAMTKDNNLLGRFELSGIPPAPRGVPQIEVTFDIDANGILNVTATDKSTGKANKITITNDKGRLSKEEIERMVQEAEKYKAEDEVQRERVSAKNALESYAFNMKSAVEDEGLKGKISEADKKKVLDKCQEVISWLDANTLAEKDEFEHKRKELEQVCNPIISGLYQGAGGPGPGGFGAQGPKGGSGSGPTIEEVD

[7] = molecular target: T4, Dual specificity protein phosphatase 6 (Rattus norvegicus, UniProt Q64346)
T4 sequence (Q64346 whole entry): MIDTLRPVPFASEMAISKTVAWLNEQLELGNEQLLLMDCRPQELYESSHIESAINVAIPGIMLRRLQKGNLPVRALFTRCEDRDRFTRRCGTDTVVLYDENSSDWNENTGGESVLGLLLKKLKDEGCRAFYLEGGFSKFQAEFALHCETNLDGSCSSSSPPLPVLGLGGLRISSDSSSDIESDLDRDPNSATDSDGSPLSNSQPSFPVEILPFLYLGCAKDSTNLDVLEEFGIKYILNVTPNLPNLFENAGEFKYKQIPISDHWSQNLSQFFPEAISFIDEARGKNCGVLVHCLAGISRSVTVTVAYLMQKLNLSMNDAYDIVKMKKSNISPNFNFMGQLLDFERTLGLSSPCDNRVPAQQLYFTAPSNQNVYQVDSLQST

[8] = molecular target: T4, Dual specificity protein phosphatase 6; test: inhibition of rat DUSP6 enzyme activity – biochemical, in vitro, primary screen (AID 425)
[9] = molecular target: Induced myeloid leukemia cell differentiation protein Mcl-1 (Homo sapiens, UniProt Q07820); format: functional
Sequence of Induced myeloid leukemia cell differentiation protein Mcl-1 (Q07820 whole entry): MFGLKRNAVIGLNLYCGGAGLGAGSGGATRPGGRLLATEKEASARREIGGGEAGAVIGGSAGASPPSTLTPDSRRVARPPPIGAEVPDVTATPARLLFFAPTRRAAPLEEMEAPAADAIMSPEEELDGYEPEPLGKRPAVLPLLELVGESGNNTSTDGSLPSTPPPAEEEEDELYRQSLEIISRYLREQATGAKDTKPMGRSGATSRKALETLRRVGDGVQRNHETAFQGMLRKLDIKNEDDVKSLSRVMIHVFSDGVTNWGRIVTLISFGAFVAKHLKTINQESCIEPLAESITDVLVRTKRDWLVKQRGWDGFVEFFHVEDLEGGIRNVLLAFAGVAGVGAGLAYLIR

[10] = molecular target: Eukaryotic translation initiation factor 4E (Mus musculus, UniProt P63073); test: blockers of eIF4G binding by eIF4E – biochemical, TR-FRET, dose response (AID 855); format: functional;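 further: potency for disrupting eIF4E binding to eIF4GI seen as loss of FRET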
Sequence of Eukaryotic translation initiation factor 4E (P63073 whole entry): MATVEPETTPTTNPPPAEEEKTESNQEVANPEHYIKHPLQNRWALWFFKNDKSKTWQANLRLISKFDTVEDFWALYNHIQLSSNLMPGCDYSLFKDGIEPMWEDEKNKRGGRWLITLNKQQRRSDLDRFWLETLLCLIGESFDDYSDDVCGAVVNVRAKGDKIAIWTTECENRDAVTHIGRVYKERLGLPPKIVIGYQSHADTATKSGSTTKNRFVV

[11] = molecular target: T4, Dual specificity protein phosphatase 6; format: functional
[12] = molecular target: Transitional endoplasmic reticulum ATPase (Homo sapiens, UniProt P55072, C522A); test: Luminescence counterscreen assay for p97 inhibitors: dose response biochemical high throughput screening assay to identify inhibitors of the C522A mutant p97 ATPase: synthesized compounds. [Related pubchem assays: 1481, 1517, 1551 ]
[13] = molecular target: Transitional endoplasmic reticulum ATPase (Homo sapiens, UniProt P55072); test: Luminescence dose response biochemical high throughput screening assay for inhibitors of the p97 ATPase: synthesized compounds. [Related pubchem assays: 1481, 1517 ]
[14] = Luminescence Cell-Based Dose Retest to Confirm Inhibitors of Cancer Stem Cells. [Related pubchem assays (depositor defined):AID2717, AID2721]; format: functional; conditions: Homo sapiens
[15] = molecular target: T5, Ubiquitin-conjugating enzyme E2 N (Homo sapiens, UniProt P61088); format: functional;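 further: Dose-response confirmation in a TR-FRET assay detecting UBC13-driven polyubiquitin chain formation, inhibition measured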
T5 sequence (P61088 whole entry): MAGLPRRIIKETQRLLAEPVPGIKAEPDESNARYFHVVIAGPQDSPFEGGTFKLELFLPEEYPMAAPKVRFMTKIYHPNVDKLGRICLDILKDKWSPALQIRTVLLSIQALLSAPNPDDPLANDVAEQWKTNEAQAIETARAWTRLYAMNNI

[16] = molecular target: Neurotensin receptor type 1 (Homo sapiens, UniProt P30989); format: functional;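 further: Image-based confirmatory dose-response assay measuring agonist activity at NTR1; NTR1-expressing U2OS osteosarcoma cells imaged for beta-arrestin GFP spot formation; agonist potency where compounds increase beta-arrestin recruitment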
Aminopeptidase N = molecular target: T6, Aminopeptidase N (Plasmodium falciparum FcB1/Columbia, UniProt O96935); test: malaria alanyl aminopeptidase activity blockers – biochemical, fluorogenic H-Leu-NHMec substrate, 1536-well (AID 1445); design: species or system Plasmodium falciparum 3D7, 3D7
T6 sequence (O96935 whole entry): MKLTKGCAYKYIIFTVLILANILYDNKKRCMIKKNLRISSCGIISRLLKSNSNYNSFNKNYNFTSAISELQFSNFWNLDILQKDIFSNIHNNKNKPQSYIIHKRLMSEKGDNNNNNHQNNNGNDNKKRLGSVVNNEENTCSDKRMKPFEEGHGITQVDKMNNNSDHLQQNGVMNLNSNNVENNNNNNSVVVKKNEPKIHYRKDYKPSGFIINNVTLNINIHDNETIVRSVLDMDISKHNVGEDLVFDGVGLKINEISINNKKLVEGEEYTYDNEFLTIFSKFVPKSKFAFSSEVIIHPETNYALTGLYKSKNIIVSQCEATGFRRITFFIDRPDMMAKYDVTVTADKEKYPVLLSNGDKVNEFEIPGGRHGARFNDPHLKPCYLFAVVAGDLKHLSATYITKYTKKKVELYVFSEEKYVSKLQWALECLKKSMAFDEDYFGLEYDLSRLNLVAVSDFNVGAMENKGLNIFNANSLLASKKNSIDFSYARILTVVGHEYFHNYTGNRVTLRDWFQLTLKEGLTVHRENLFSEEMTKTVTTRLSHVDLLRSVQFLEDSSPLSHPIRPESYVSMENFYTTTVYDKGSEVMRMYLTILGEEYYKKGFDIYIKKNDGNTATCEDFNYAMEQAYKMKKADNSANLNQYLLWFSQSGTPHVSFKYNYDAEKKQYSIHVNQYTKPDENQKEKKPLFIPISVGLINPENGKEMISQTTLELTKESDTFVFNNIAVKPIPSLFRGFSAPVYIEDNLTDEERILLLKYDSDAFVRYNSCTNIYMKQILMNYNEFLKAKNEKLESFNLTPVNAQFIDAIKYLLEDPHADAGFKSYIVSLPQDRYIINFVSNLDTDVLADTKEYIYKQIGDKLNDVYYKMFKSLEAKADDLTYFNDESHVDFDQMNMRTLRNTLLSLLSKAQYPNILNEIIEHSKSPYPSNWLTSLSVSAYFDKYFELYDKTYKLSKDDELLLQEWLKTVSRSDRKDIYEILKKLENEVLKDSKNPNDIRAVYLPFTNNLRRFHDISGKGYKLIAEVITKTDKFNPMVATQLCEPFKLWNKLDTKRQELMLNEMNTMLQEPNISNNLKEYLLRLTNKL

[17] = system: Streptococcus sp. 'group A'; test: Streptococcus pyogenes SK(-)GAS viability under kanamycin – luminescence, BacTiterGlo, confirmation, counter-screen for streptokinase expression inhibitor project, dose response (AID 1900); format: functional, organism-based
[18] = molecular target: Serine/threonine-protein phosphatase PP1-alpha catalytic subunit (Homo sapiens, UniProt P62136); test: inhibition of protein phosphatase 1 activity – biochemical, fluorescence, dose response (AID 2403);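 further: phosphatase turnover of OMFP into fluorescent 3-O-methylfluorescein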
Sequence of Serine/threonine-protein phosphatase PP1-alpha catalytic subunit (P62136 whole entry): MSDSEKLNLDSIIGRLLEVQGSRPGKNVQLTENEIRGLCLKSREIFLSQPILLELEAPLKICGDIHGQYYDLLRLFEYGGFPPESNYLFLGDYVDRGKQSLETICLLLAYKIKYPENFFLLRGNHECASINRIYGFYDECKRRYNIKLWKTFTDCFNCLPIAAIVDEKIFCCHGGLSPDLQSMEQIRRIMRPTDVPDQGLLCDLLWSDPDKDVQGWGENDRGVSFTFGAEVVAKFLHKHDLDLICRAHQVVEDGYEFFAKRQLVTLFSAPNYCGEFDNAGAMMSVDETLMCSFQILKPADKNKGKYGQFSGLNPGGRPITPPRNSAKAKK

Streptokinase A = molecular target: T7, Streptokinase A (Streptococcus pyogenes serotype M1, UniProt P10520); test: viability-normalized secreted streptokinase activity reduction – plasminogen activation absorbance, OD405, dose response (AID 1914); format: functional, Streptococcus pyogenes M1 GAS;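 further: secreted streptokinase activity via plasminogen activation per viability signal from cell pellet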
T7 sequence (P10520 whole entry): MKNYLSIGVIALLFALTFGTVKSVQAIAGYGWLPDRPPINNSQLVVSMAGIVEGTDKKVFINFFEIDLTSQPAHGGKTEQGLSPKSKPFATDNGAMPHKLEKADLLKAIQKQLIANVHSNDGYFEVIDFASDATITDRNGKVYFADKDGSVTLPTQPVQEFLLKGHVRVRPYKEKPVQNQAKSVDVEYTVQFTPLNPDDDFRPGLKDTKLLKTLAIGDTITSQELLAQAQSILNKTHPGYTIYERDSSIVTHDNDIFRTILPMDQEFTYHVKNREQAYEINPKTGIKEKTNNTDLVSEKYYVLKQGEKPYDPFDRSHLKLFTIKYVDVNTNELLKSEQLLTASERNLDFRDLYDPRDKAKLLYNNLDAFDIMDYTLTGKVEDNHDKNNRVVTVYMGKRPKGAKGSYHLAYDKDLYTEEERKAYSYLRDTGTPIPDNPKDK

[19] = molecular target: Serine/threonine-protein phosphatase (Homo sapiens, UniProt Q9BPW0); test: Counterscreen for inhibitors of PP1: fluorescence-based biochemical high throughput dose response assay to identify inhibitors of Protein Phosphatase 5 (PP5). [Related pubchem assays: 2034 (Summary (PP5 inhibitors)), 1987 (PP5 inhibitors in singlate), 2235 (PP1 inhibitors in singlate)]
Sequence of Serine/threonine-protein phosphatase (Q9BPW0 whole entry): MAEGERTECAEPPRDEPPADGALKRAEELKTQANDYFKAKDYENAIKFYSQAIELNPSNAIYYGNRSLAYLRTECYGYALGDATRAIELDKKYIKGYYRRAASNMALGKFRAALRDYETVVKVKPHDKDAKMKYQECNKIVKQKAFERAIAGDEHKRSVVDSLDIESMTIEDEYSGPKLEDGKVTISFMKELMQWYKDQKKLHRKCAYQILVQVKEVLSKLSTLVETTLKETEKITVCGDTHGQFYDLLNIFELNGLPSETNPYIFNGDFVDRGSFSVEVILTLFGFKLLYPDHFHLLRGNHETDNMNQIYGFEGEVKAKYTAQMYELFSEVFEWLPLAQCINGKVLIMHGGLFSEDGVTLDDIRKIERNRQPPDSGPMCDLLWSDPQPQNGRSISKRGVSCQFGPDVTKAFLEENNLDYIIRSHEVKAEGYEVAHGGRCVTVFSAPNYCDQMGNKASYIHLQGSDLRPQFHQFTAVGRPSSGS

Streptococcus = test: GAS UMAA2166 growth inhibition – luminescence, BacTiterGlo, counter-screen for streptokinase expression inhibitor project, dose response (AID 1915); format: functional, organism-based;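 further: potency for reduction of bacterial viability or growth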
[20] = molecular target: T8, Neuropeptides B/W receptor type 1 (Homo sapiens, UniProt P48145); test: Fluorescence-based dose response cell-based high throughput screening assay to identify antagonists of the G-protein coupled receptor 7 (GPR7). [Related pubchem assays: 1952 (Screening assay (GPR7 antagonists).), 1880 (Summary AID.)]; format: functional
T8 sequence (P48145 whole entry): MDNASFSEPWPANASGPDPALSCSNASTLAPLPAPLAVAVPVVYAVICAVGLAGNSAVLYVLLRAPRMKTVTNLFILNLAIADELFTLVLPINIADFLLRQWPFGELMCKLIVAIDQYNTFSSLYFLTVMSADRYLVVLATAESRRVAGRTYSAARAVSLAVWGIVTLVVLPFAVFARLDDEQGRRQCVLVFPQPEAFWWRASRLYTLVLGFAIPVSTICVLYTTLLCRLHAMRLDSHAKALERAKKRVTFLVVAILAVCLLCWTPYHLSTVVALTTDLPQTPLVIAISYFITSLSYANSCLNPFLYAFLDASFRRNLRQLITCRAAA

[21] = molecular target: Melanin-concentrating hormone receptor 1 (Homo sapiens, UniProt Q99705); test: Fluorescence-based counterscreen for antagonists of the G-protein coupled receptor 7 (GPR7): cell-based high throughput dose response assay to identify antagonists of the melanin-concentrating hormone receptor 1 (MCHR1).; format: functional
Sequence of Melanin-concentrating hormone receptor 1 (Q99705 whole entry): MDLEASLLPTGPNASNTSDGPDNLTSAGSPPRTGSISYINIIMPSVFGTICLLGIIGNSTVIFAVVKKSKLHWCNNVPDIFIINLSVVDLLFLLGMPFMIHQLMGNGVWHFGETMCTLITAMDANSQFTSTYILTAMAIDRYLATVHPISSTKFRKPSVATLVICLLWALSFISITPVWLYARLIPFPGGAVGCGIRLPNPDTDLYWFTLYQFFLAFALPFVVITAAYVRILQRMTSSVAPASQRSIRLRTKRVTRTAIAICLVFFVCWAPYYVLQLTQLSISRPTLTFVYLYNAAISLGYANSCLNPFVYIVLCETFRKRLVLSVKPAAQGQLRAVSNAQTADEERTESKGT

Cytochrome P450 2C9 = Cytochrome P450 2C9 (Homo sapiens, UniProt P11712); conditions: Potency
Sequence of Cytochrome P450 2C9 (P11712 whole entry): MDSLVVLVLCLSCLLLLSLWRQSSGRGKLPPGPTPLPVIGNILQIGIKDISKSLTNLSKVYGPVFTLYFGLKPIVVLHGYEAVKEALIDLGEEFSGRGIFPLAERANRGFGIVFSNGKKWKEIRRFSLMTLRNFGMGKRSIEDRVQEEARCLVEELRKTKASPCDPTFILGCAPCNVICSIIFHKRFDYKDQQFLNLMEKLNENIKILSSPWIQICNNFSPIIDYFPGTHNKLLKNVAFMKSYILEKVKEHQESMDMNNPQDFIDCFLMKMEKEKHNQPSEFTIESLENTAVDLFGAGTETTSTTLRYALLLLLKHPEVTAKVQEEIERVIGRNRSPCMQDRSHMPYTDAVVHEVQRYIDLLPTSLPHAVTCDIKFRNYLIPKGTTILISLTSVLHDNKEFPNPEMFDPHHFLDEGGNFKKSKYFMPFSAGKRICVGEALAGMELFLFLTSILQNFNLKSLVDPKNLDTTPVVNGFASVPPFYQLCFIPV

Wee1-like protein kinase = Wee1-like protein kinase (Homo sapiens, UniProt P30291); test: HeLa cell cycle G2/M accumulation – FACS, mechanism study for Wee1 degradation inhibitor project, late-stage follow-up, panel member Wee1 Degradation (AID 2088)
[22] = molecular target: G2/mitotic-specific cyclin-B1 (Homo sapiens, UniProt P14635); test: HeLa cell cycle G2/M accumulation – FACS, mechanism study for Wee1 degradation inhibitor project, late-stage follow-up, panel member Cyclin B Degradation (AID 2088)
Sequence of G2/mitotic-specific cyclin-B1 (P14635 whole entry): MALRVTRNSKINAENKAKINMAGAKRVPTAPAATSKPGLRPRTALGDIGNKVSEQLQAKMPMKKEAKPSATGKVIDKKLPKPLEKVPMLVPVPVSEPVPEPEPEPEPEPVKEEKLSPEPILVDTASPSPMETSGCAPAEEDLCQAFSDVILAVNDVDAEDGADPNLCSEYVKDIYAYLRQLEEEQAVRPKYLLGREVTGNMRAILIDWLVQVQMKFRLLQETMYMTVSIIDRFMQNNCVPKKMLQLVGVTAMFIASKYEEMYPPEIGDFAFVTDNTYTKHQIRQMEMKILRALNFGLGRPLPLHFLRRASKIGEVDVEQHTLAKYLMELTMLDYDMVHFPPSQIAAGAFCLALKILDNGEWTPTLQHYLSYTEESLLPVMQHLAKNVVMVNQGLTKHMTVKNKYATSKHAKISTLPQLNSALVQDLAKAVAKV

SMILES: CCOC(=O)c1ccc2c(c1)C1C=CCC1C(C(=O)O)N2 (stereo not given)
- IC50 [1]: 2.18 µM (active)
- IC50 (Bcl-2-like protein 10): 1.08 µM (active)
- IC50 [2]: 95.4 µM (active)
- IC50 [3]: 27 µM (active)
- IC50 (Large T antigen): 14.2 µM (active)
- IC50 [4]: > 1.56 µM (inactive)
- IC50 [5]: > 100 µM (not active)
- IC50 [6]: 5.56 µM (active)
- IC50 [7]: 14.7 µM (active)
- IC50 [8]: > 10 µM (not active)
- IC50 [9]: 997 nM (active)
- IC50 [10]: 10.2 µM (active)
- IC50 [11]: 9.87 µM (active)

SMILES: N#Cc1ccc(Nc2nc(-c3ccc(O)cc3O)cs2)cc1C(F)(F)F
- IC50 [12]: > 50 µM (not active)
- IC50 [13]: 13.5 µM (not active)
- AC50 [14]: 4.98 µM (active)
- IC50 [15]: > 20 µM (inactive)
- EC50 [16]: 9.59 µM (active)

SMILES: CCOC(=O)c1sc2nc3c(SCC(=O)O)cc(C(=O)c4cc(F)ccc4O)cn3c(=O)c2c1C
- IC50 (Aminopeptidase N): 21.9 µM (active)
- EC50 [17]: 1.86 µM (active)
- IC50 [18]: 5.11 µM (active)
- EC50 (Streptokinase A): 15.4 µM (active)
- IC50 [19]: > 67 µM (not active)
- IC50 [9]: 2630 nM (active)
- EC50 (Streptococcus): 141 µM (active)

SMILES: CCCCNc1nc2ccccc2n1CC(=O)Nc1c(C)cccc1CC
- IC50 [20]: > 43.8 µM (not active)
- IC50 [21]: 31.7 µM (not active)

SMILES: Cc1ccccc1OC1C=CC(C#Cc2ccc(Br)cc2)OC1CO (stereo not given)
- AC50 (Cytochrome P450 2C9): 3.98 µM (inconclusive)

SMILES: Cc1cccc(OCC(=O)Nc2cc(C)nn2-c2nc(C)cc(=O)[nH]2)c1
- EC50 (Wee1-like protein kinase): > 16.6 µM (active)
- EC50 [22]: > 49.7 µM (inactive)
